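Where inhibition never reached the appropriate level, the endpoint shown equals the highest concentration tested. Otherwise, values were interpolated linearly from a five-concentration, 48-hour dose response in 96-well plates. TGI: total growth inhibition.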
Assays:
Experiment in all cases: inhibition of tumour cell growth, NCI panel, 48 h
[1] = test system: OVCAR-8 ovarian
[2] = test system: M14 melanoma
[3] = test system: SW-620 colon
[4] = test system: SK-MEL-28 melanoma
[5] = test system: SNB-78 CNS
[6] = test system: SK-MEL-2 melanoma
[7] = test system: DLD-1 colon
[8] = test system: LXFL 529 NSCLC
[9] = test system: HL-60(TB) leukemia
[10] = test system: HT29 colon
[11] = test system: M19-MEL melanoma
[12] = test system: HOP-92 NSCLC
[13] = test system: MALME-3M melanoma
[14] = test system: CCRF-CEM leukemia
[15] = test system: SK-OV-3 ovarian
[16] = test system: HCT-15 colon
[17] = test system: COLO 205 colon
[18] = test system: ACHN renal
[19] = test system: SN12C renal
[20] = test system: RPMI-8226 leukemia
[21] = test system: A498 renal
[22] = test system: K-562 leukemia
[23] = test system: CAKI-1 renal
[24] = test system: DMS 114 small cell lung
[25] = test system: MOLT-4 leukemia
[26] = test system: KM20L2 colon
[27] = test system: TK-10 renal
[28] = test system: EKVX NSCLC
[29] = test system: SF-295 CNS
[30] = test system: UACC-62 melanoma
[31] = test system: A549 NSCLC
[32] = test system: UACC-257 melanoma
[33] = test system: KM12 colon
[34] = test system: SNB-19 CNS
[35] = test system: HCT-116 colon
[36] = test system: U251 CNS
[37] = test system: NCI-H460 lung
[38] = test system: NCI-H226 lung
[39] = test system: OVCAR-3 ovarian
[40] = test system: SR leukemia
[41] = test system: XF 498 CNS
[42] = test system: UO-31 renal
[43] = test system: SF-268 CNS
[44] = test system: 786-0 renal
[45] = test system: IGROV1 ovarian
[46] = test system: NCI-H522 lung
[47] = test system: SNB-75 CNS
[48] = test system: NCI-H23 lung
[49] = test system: OVCAR-4 ovarian
[50] = test system: HOP-62 NSCLC
[51] = test system: OVCAR-5 ovarian
[52] = test system: HCC-2998 colon
[53] = test system: SK-MEL-5 melanoma
[54] = test system: LOX IMVI melanoma
[55] = test system: RXF 393 renal
[56] = test system: SF-539 CNS
[57] = test system: HOP-18 NSCLC
[58] = test system: DMS 273 small cell lung

Work on CC(C)c1ccc(O)c(Cc2cc(C(C)C)cc(Cc3cc(C(C)C)ccc3O)c2O)c1 yielded a TGI [1] of 4.18 µM, a TGI [2] of 3.23 µM and a TGI [3] of 3.09 µM. For the same molecule, the TGI [4] was 3.2 µM, the TGI [5] was 4.54 µM and the TGI [6] was 3.06 µM. For the same molecule, the TGI [7] was 4.15 µM, the TGI [8] was 2.81 µM and the TGI [9] was 4.36 µM. It also gave a TGI [10] of 4.28 µM, a TGI [11] of 2.99 µM and a TGI [12] of 3.33 µM. For the same molecule, the TGI [13] was 2.82 µM, the TGI [14] was 6.91 µM and the TGI [15] was 3.05 µM. The TGI [16] was 3.24 µM, the TGI [17] was 12.3 µM and the TGI [18] was 10.8 µM. For the same molecule, the TGI [19] was 3.16 µM, the TGI [20] was 4.75 µM and the TGI [21] was 2.82 µM. The TGI [22] was 4.78 µM, the TGI [23] was 2.91 µM and the TGI [24] was 3.03 µM. For the same molecule, the TGI [25] was 4.68 µM, the TGI [26] was 5.55 µM and the TGI [27] was 4.72 µM. It also gave a TGI [28] of 8.95 µM, a TGI [29] of 3.3 µM and a TGI [30] of 8.48 µM. For the same molecule, the TGI [31] was 3.96 µM, the TGI [32] was 3.41 µM and the TGI [33] was 3.74 µM. For the same molecule, the TGI [34] was 3.12 µM, the TGI [35] was 3.19 µM and the TGI [36] was 3.17 µM. It also gave a TGI [37] of 3.45 µM, a TGI [38] of 2.93 µM and a TGI [39] of 3.03 µM. It also gave a TGI [40] of 4.45 µM, a TGI [41] of 2.73 µM and a TGI [42] of 3.04 µM. The TGI [43] was 4.01 µM, the TGI [44] was 3.08 µM and the TGI [45] was 6.54 µM. The TGI [46] was 2.92 µM, the TGI [47] was 5.03 µM and the TGI [48] was 3.15 µM. For the same molecule, the TGI [49] was 2.68 µM, the TGI [50] was 3.26 µM and the TGI [51] was 3.13 µM. The TGI [52] was 3.2 µM and the TGI [53] was 3.15 µM.
Work on COC(=O)C1=NC(=S)NC(c2ccccc2)C1c1nc2ccccc2o1 (centres undefined) yielded a TGI [54] of over 50 µM, a TGI [1] of over 50 µM and a TGI [55] of over 50 µM. It also gave a TGI [2] of over 50 µM, a TGI [3] of over 50 µM and a TGI [5] of over 50 µM. It also gave a TGI [6] of over 50 µM, a TGI [7] of over 50 µM and a TGI [8] of over 50 µM. The TGI [9] was over 50 µM, the TGI [10] was over 50 µM and the TGI [11] was over 50 µM. For the same molecule, the TGI [12] was over 50 µM, the TGI [13] was over 50 µM and the TGI [14] was over 50 µM. For the same molecule, the TGI [15] was over 50 µM, the TGI [16] was over 50 µM and the TGI [17] was over 50 µM. The TGI [18] was over 50 µM, the TGI [19] was over 50 µM and the TGI [20] was over 50 µM. For the same molecule, the TGI [21] was over 50 µM, the TGI [22] was over 50 µM and the TGI [23] was over 50 µM. For the same molecule, the TGI [24] was over 50 µM, the TGI [25] was over 50 µM and the TGI [26] was over 50 µM. The TGI [56] was over 50 µM, the TGI [27] was over 50 µM and the TGI [28] was over 50 µM. The TGI [29] was over 50 µM, the TGI [30] was over 50 µM and the TGI [31] was over 50 µM. The TGI [32] was over 50 µM, the TGI [33] was over 50 µM and the TGI [34] was over 50 µM. For the same molecule, the TGI [35] was over 50 µM, the TGI [36] was over 50 µM and the TGI [57] was over 50 µM. It also gave a TGI [37] of over 50 µM, a TGI [38] of over 50 µM and a TGI [39] of over 50 µM. For the same molecule, the TGI [40] was over 50 µM, the TGI [41] was over 50 µM and the TGI [42] was over 50 µM. The TGI [43] was over 50 µM, the TGI [44] was over 50 µM and the TGI [45] was over 50 µM. The TGI [46] was over 50 µM, the TGI [48] was over 50 µM and the TGI [49] was over 50 µM. It also gave a TGI [50] of over 50 µM, a TGI [51] of over 50 µM and a TGI [52] of over 50 µM.
For COc1ccc(/C=C/C(=N\NC(=O)c2ccccc2)c2sc(Nc3ccc([N+](=O)[O-])cc3)nc2C)cc1OC, the TGI [54] was 15.9 µM, the TGI [1] was 27 µM and the TGI [55] was 52.5 µM. The TGI [2] was 28.9 µM, the TGI [3] was over 100 µM and the TGI [4] was 47.2 µM. For the same molecule, the TGI [5] was 61.9 µM, the TGI [6] was 33 µM and the TGI [7] was 28.8 µM. It also gave a TGI [8] of 24.3 µM, a TGI [10] of over 100 µM and a TGI [11] of 70.6 µM. For the same molecule, the TGI [12] was 6.41 µM, the TGI [13] was 43.1 µM and the TGI [14] was over 100 µM. The TGI [15] was over 100 µM, the TGI [16] was 28.5 µM and the TGI [17] was over 100 µM. For the same molecule, the TGI [18] was 41.8 µM, the TGI [19] was over 100 µM and the TGI [22] was over 100 µM. For the same molecule, the TGI [23] was 32.8 µM, the TGI [24] was 62.7 µM and the TGI [25] was over 100 µM. For the same molecule, the TGI [26] was 97.6 µM, the TGI [56] was 69.8 µM and the TGI [27] was 66.5 µM. It also gave a TGI [28] of 91 µM, a TGI [29] of 26.5 µM and a TGI [30] of 6.78 µM. For the same molecule, the TGI [31] was 28.9 µM, the TGI [32] was 28.1 µM and the TGI [33] was 47.5 µM. The TGI [34] was 32.5 µM, the TGI [35] was over 100 µM and the TGI [36] was 18.6 µM. It also gave a TGI [57] of 85 µM, a TGI [37] of 41.2 µM and a TGI [38] of 44.7 µM. It also gave a TGI [39] of 61.5 µM, a TGI [40] of over 100 µM and a TGI [41] of 29.5 µM. For the same molecule, the TGI [42] was 56.6 µM, the TGI [43] was 33.5 µM and the TGI [58] was 54.6 µM. The TGI [44] was 26.5 µM, the TGI [46] was 17.4 µM and the TGI [47] was 17.8 µM. It also gave a TGI [49] of 36.9 µM, a TGI [50] of 49.9 µM and a TGI [51] of over 100 µM. The TGI [52] was over 100 µM.
Cc1cc(Cl)ccc1N=C1NC(=O)C(CC(=O)Nc2cccc(Cl)c2)S1 (centres undefined) gave a TGI [54] of over 100 µM, a TGI [1] of over 100 µM and a TGI [55] of 72.6 µM. For the same molecule, the TGI [2] was over 100 µM, the TGI [3] was over 100 µM and the TGI [4] was over 100 µM. The TGI [5] was over 100 µM, the TGI [6] was over 100 µM and the TGI [7] was over 100 µM. The TGI [8] was over 100 µM, the TGI [9] was over 100 µM and the TGI [10] was over 100 µM. It also gave a TGI [11] of over 100 µM, a TGI [12] of 69.8 µM and a TGI [13] of over 100 µM. The TGI [14] was over 100 µM, the TGI [15] was over 100 µM and the TGI [16] was over 100 µM. For the same molecule, the TGI [17] was over 100 µM, the TGI [18] was over 100 µM and the TGI [19] was over 100 µM. It also gave a TGI [21] of 92.4 µM, a TGI [22] of over 100 µM and a TGI [23] of over 100 µM. For the same molecule, the TGI [24] was over 100 µM, the TGI [26] was over 100 µM and the TGI [56] was over 100 µM. For the same molecule, the TGI [27] was over 100 µM, the TGI [28] was over 100 µM and the TGI [29] was over 100 µM. The TGI [30] was over 100 µM, the TGI [31] was over 100 µM and the TGI [32] was over 100 µM. It also gave a TGI [33] of over 100 µM, a TGI [34] of over 100 µM and a TGI [35] of over 100 µM. For the same molecule, the TGI [36] was over 100 µM, the TGI [57] was over 100 µM and the TGI [37] was over 100 µM. For the same molecule, the TGI [38] was over 100 µM, the TGI [39] was over 100 µM and the TGI [41] was over 100 µM. For the same molecule, the TGI [42] was over 100 µM, the TGI [43] was over 100 µM and the TGI [58] was over 100 µM. It also gave a TGI [44] of over 100 µM, a TGI [45] of over 100 µM and a TGI [46] of over 100 µM. The TGI [47] was over 100 µM, the TGI [48] was over 100 µM and the TGI [49] was over 100 µM. The TGI [50] was over 100 µM, the TGI [51] was 87.4 µM and the TGI [52] was over 100 µM. The TGI [53] was over 100 µM.

Source: PubChem BioAssay (NCI)
